Assay results taken from ChEMBL document CHEMBL1140277, “Antibiotics GE23077, novel inhibitors of bacterial RNA polymerase. Part 3: Chemical derivatization” (Bioorg Med Chem Lett, 2005).
Converted amounts (≈) assume the structure as drawn. Numbered stars: 1 amine (or outer) side, 2 acyl side, 3 side chain; on linkers, the order of the positions; unused ones are H or OH. Square brackets hold non-standard residues; d marks the D form. Peptide text beside a SMILES is read from it. * marks the point of attachment. ξ: configuration not given here. ξGln(3,4-(OH)2) = NC(=O)C(O)C(O)C(N)C(=O)O; isoSer(2S) = O=C([C@@H](O)CN[*:1])[*:2]; ξAllylGly = C=CCC(N)C(=O)O; X1 = CC(NCc1ccccc1)C(=O)*; ξE = NC(CCC(=O)O)C(=O)O; Dap = NC[C@H](N)C(=O)O; X2 = C/C=C(/C)C(=O)*

Columns and labels:
[1] = Minimum inhibitory concentration against Moraxella catarrhalis using broth microdilution method; assay type: functional
[2] = Inhibitory concentration against RNA polymerase from Escherichia coli using cell freei transcription assay; assay type: functional

MIC [1] [µg/mL] | IC50 [2] [µg/mL] | Structure (SMILES)
64 (≈ 80.6 µM) | 0.11 (≈ 0.139 µM) | CC(O)C(=O)NC[C@@H]1NC(=O)C(C(=O)O)NC(=O)[C@@H](O)CNC(=O)[C@H]([C@@H](C)O)NC(=O)C(C(O)C(O)C(N)=O)NC(=O)[C@H](C(C)C)NC(=O)[C@H](CO)NC1=O (some centres undefined)
8 (≈ 9.95 µM) | 0.03 (≈ 0.0373 µM) | C/C=C(/C)C(=O)NC[C@@H]1NC(=O)[C@@H](C(=O)O)NC(=O)[C@@H](O)CNC(=O)[C@H]([C@@H](C)O)NC(=O)C(C(O)C(O)C(N)=O)NC(=O)[C@H](C(C)C)NC(=O)[C@H](CO)NC1=O (some centres undefined)
32 (≈ 39.8 µM) | 3.14 (≈ 3.91 µM) | C/C=C(/C)C(=O)NC[C@@H]1NC(=O)C(C(=O)OC)NC(=O)[C@@H](O)CNC(=O)[C@H]([C@@H](C)O)NC(=O)C(C(O)C(O)CN)NC(=O)[C@H](C(C)C)NC(=O)[C@H](CO)NC1=O (some centres undefined)
8 (≈ 9.78 µM) | 0.15 (≈ 0.183 µM) | C/C=C(/C)C(=O)NC[C@@H]1NC(=O)C(C(=O)OC)NC(=O)[C@@H](O)CNC(=O)[C@H]([C@@H](C)O)NC(=O)C(C(O)C(O)C(N)=O)NC(=O)[C@H](C(C)C)NC(=O)[C@H](CO)NC1=O (some centres undefined)
64 (≈ 76.9 µM) | 0.1 (≈ 0.12 µM) | C/C=C(/C)C(=O)NC[C@@H]1NC(=O)C(C(=O)OCC)NC(=O)[C@@H](O)CNC(=O)[C@H]([C@@H](C)O)NC(=O)C(C(O)C(O)C(N)=O)NC(=O)[C@H](C(C)C)NC(=O)[C@H](CO)NC1=O (some centres undefined)
 | 0.4 (≈ 0.474 µM) | C=CCOC(=O)C1NC(=O)[C@@H](O)CNC(=O)[C@H]([C@@H](C)O)NC(=O)C(C(O)C(O)C(N)=O)NC(=O)[C@H](C(C)C)NC(=O)[C@H](CO)NC(=O)[C@H](CNC(=O)/C(C)=C\C)NC1=O (some centres undefined)
128 (≈ 143 µM) | 0.3 (≈ 0.336 µM) | C/C=C(/C)C(=O)NC[C@@H]1NC(=O)C(C(=O)NCc2ccccc2)NC(=O)[C@@H](O)CNC(=O)[C@H]([C@@H](C)O)NC(=O)C(C(O)C(O)C(N)=O)NC(=O)[C@H](C(C)C)NC(=O)[C@H](CO)NC1=O (some centres undefined)
 | 0.4 (≈ 0.472 µM) | C/C=C(/C)C(=O)NC[C@@H]1NC(=O)C(C(=O)N(C)OC)NC(=O)[C@@H](O)CNC(=O)[C@H]([C@@H](C)O)NC(=O)C(C(O)C(O)C(N)=O)NC(=O)[C@H](C(C)C)NC(=O)[C@H](CO)NC1=O (some centres undefined)
512 (≈ 529 µM) |  | C/C=C(/C)C(=O)NC[C@@H]1NC(=O)C(C(=O)NC(Cc2ccc(O)cc2)C(=O)O)NC(=O)[C@@H](O)CNC(=O)[C@H]([C@@H](C)O)NC(=O)C(C(O)C(O)C(N)=O)NC(=O)[C@H](C(C)C)NC(=O)[C@H](CO)NC1=O (some centres undefined)
64 (≈ 66.7 µM) | > 3.2 | C/C=C(/C)C(=O)NC[C@@H]1NC(=O)C(C(=O)N[C@@H](C)C(=O)N[C@@H](C)C(=O)OC)NC(=O)[C@@H](O)CNC(=O)[C@H]([C@@H](C)O)NC(=O)C(C(O)C(O)C(N)=O)NC(=O)[C@H](C(C)C)NC(=O)[C@H](CO)NC1=O (some centres undefined)
8 (≈ 10.1 µM) | 0.07 (≈ 0.0884 µM) | CC(=O)C(=O)NC[C@@H]1NC(=O)C(C(=O)O)NC(=O)[C@@H](O)CNC(=O)[C@H]([C@@H](C)O)NC(=O)C(C(O)C(O)C(N)=O)NC(=O)[C@H](C(C)C)NC(=O)[C@H](CO)NC1=O (some centres undefined)
64 (≈ 80.7 µM) | 0.28 (≈ 0.353 µM) | CC(N)C(=O)NC[C@@H]1NC(=O)C(C(=O)O)NC(=O)[C@@H](O)CNC(=O)[C@H]([C@@H](C)O)NC(=O)C(C(O)C(O)C(N)=O)NC(=O)[C@H](C(C)C)NC(=O)[C@H](CO)NC1=O (some centres undefined)
32 (≈ 40 µM) | 2.24 (≈ 2.8 µM) | C=CCC1NC(=O)[C@@H](O)CNC(=O)[C@H]([C@@H](C)O)NC(=O)C(C(O)C(O)C(N)=O)NC(=O)[C@H](C(C)C)NC(=O)[C@H](CO)NC(=O)[C@H](CNC(=O)/C(C)=C\C)NC1=O (stereo partly drawn) (cyclo([Dap](X2)SV[ξGln(3,4-(OH)2)]T[isoSer(2S)][ξAllylGly]))
8 (≈ 9.62 µM) | 0.2 (≈ 0.24 µM) | C/C=C(/C)C(=O)NC[C@@H]1NC(=O)C(CCC(=O)O)NC(=O)[C@@H](O)CNC(=O)[C@H]([C@@H](C)O)NC(=O)C(C(O)C(O)C(N)=O)NC(=O)[C@H](C(C)C)NC(=O)[C@H](CO)NC1=O (stereo partly drawn) (cyclo([Dap](X2)SV[ξGln(3,4-(OH)2)]T[isoSer(2S)][ξE]))

Continued, compound first:

Structure (SMILES) | MIC [1] [µg/mL] | IC50 [2] [µg/mL]
CC(NCc1ccc(C(F)(F)F)cc1)C(=O)NC[C@@H]1NC(=O)C(C(=O)O)NC(=O)[C@@H](O)CNC(=O)[C@H]([C@@H](C)O)NC(=O)C(C(O)C(O)C(N)=O)NC(=O)[C@H](C(C)C)NC(=O)[C@H](CO)NC1=O (some centres undefined) | 256 (≈ 269 µM) | 0.05 (≈ 0.0526 µM)
CC(NCc1cc(C(F)(F)F)cc(C(F)(F)F)c1)C(=O)NC[C@@H]1NC(=O)C(C(=O)O)NC(=O)[C@@H](O)CNC(=O)[C@H]([C@@H](C)O)NC(=O)C(C(O)C(O)C(N)=O)NC(=O)[C@H](C(C)C)NC(=O)[C@H](CO)NC1=O (some centres undefined) | 512 (≈ 503 µM) | 0.24 (≈ 0.236 µM)
CC(NCc1cc(F)c(F)c(F)c1)C(=O)NC[C@@H]1NC(=O)C(C(=O)O)NC(=O)[C@@H](O)CNC(=O)[C@H]([C@@H](C)O)NC(=O)C(C(O)C(O)C(N)=O)NC(=O)[C@H](C(C)C)NC(=O)[C@H](CO)NC1=O (some centres undefined) | 64 (≈ 68.3 µM) | 0.06 (≈ 0.064 µM)
CC(NCC(F)(F)F)C(=O)NC[C@@H]1NC(=O)C(C(=O)O)NC(=O)[C@@H](O)CNC(=O)[C@H]([C@@H](C)O)NC(=O)C(C(O)C(O)C(N)=O)NC(=O)[C@H](C(C)C)NC(=O)[C@H](CO)NC1=O (some centres undefined) | > 512 | 0.17 (≈ 0.194 µM)
C/C=C(/C)C(=O)NC[C@@H]1NC(=O)C(C(=O)OC)NC(=O)[C@@H](O)CNC(=O)[C@H]([C@@H](C)O)NC(=O)C(C(O)C(O)CNC(=O)/C=C/c2ccccc2)NC(=O)[C@H](C(C)C)NC(=O)[C@H](CO)NC1=O (some centres undefined) | > 512 | > 3.2
C/C=C(/C)C(=O)NC[C@@H]1NC(=O)C(C(=O)OC)NC(=O)[C@@H](O)CNC(=O)[C@H]([C@@H](C)O)NC(=O)C(C(O)C(O)CNC(=O)C(CCCC)CCCCCC)NC(=O)[C@H](C(C)C)NC(=O)[C@H](CO)NC1=O (some centres undefined) | > 512 | > 3.2
C/C=C(/C)C(=O)NC[C@@H]1NC(=O)C(C(=O)OC)NC(=O)[C@@H](O)CNC(=O)[C@H]([C@@H](C)O)NC(=O)C(C(O)C(O)CNC(=O)Cc2ccc(-c3ccccc3)cc2)NC(=O)[C@H](C(C)C)NC(=O)[C@H](CO)NC1=O (some centres undefined) | > 512 | > 3.2
CC(NCc1ccccc1)C(=O)NC[C@@H]1NC(=O)C(C(=O)O)NC(=O)[C@@H](O)CNC(=O)[C@H]([C@@H](C)O)NC(=O)C(C(O)C(O)C(N)=O)NC(=O)[C@H](C(C)C)NC(=O)[C@H](CO)NC1=O (some centres undefined) | 32 (≈ 36.2 µM) | 0.07 (≈ 0.0793 µM)
CC(NCC1CCCCC1)C(=O)NC[C@@H]1NC(=O)C(C(=O)O)NC(=O)[C@@H](O)CNC(=O)[C@H]([C@@H](C)O)NC(=O)C(C(O)C(O)C(N)=O)NC(=O)[C@H](C(C)C)NC(=O)[C@H](CO)NC1=O (some centres undefined) | 16 (≈ 18 µM) | 0.42 (≈ 0.472 µM)
CCCCCCCCc1ccc(C(=O)NC(C)C(=O)NC[C@@H]2NC(=O)C(C(=O)O)NC(=O)[C@@H](O)CNC(=O)[C@H]([C@@H](C)O)NC(=O)C(C(O)C(O)C(N)=O)NC(=O)[C@H](C(C)C)NC(=O)[C@H](CO)NC2=O)cc1 (some centres undefined) | > 512 | 0.07 (≈ 0.0694 µM)
CC(NC(=O)/C=C/c1ccccc1)C(=O)NC[C@@H]1NC(=O)C(C(=O)O)NC(=O)[C@@H](O)CNC(=O)[C@H]([C@@H](C)O)NC(=O)C(C(O)C(O)C(N)=O)NC(=O)[C@H](C(C)C)NC(=O)[C@H](CO)NC1=O (some centres undefined) | 128 (≈ 139 µM) | 0.08 (≈ 0.0867 µM)
CC(NC(=O)Cc1ccc(-c2ccccc2)cc1)C(=O)NC[C@@H]1NC(=O)C(C(=O)O)NC(=O)[C@@H](O)CNC(=O)[C@H]([C@@H](C)O)NC(=O)C(C(O)C(O)C(N)=O)NC(=O)[C@H](C(C)C)NC(=O)[C@H](CO)NC1=O (some centres undefined) | > 512 | 0.22 (≈ 0.223 µM)
CCCCCCCCC(=O)NC(C)C(=O)NC[C@@H]1NC(=O)C(C(=O)O)NC(=O)[C@@H](O)CNC(=O)[C@H]([C@@H](C)O)NC(=O)C(C(O)C(O)C(N)=O)NC(=O)[C@H](C(C)C)NC(=O)[C@H](CO)NC1=O (some centres undefined) | 256 (≈ 274 µM) | 0.09 (≈ 0.0965 µM)
CCCCCCC(CCCC)C(=O)NC(C)C(=O)NC[C@@H]1NC(=O)C(C(=O)O)NC(=O)[C@@H](O)CNC(=O)[C@H]([C@@H](C)O)NC(=O)C(C(O)C(O)C(N)=O)NC(=O)[C@H](C(C)C)NC(=O)[C@H](CO)NC1=O (some centres undefined) | 512 (≈ 525 µM) | 0.13 (≈ 0.133 µM)
CCCCCCCCCCCCCCCCCC(=O)NC(C)C(=O)NC[C@@H]1NC(=O)[C@@H](C(=O)O)NC(=O)[C@@H](O)CNC(=O)[C@H]([C@@H](C)O)NC(=O)C(C(O)C(O)C(N)=O)NC(=O)[C@H](C(C)C)NC(=O)[C@H](CO)NC1=O (some centres undefined) | > 512 | 0.57 (≈ 0.538 µM)
CC(NCc1ccccc1)C(=O)NC[C@@H]1NC(=O)CNC(=O)[C@@H](O)CNC(=O)[C@H]([C@@H](C)O)NC(=O)C(C(O)C(O)C(N)=O)NC(=O)[C@H](C(C)C)NC(=O)[C@H](CO)NC1=O (stereo partly drawn) (cyclo([Dap](X1)SV[ξGln(3,4-(OH)2)]T[isoSer(2S)]G)) | 128 (≈ 153 µM) | 1.05 (≈ 1.25 µM)
C/C=C(/C)C(=O)NC[C@@H]1NC(=O)CNC(=O)[C@@H](O)CNC(=O)[C@H]([C@@H](C)O)NC(=O)C(C(O)C(O)C(N)=O)NC(=O)[C@H](C(C)C)NC(=O)[C@H](CO)NC1=O (stereo partly drawn) (cyclo([Dap](X2)SV[ξGln(3,4-(OH)2)]T[isoSer(2S)]G)) | 16 (≈ 21.1 µM) | 0.65 (≈ 0.856 µM)
